≈ marks a conversion by molar mass, not a printed value. Numbered stars: 1 amine (or outer) side, 2 acyl side, 3 side chain; on linkers, the order of the positions; unused ones are H or OH. Square brackets hold non-standard residues; d marks the D form. Peptide text beside a SMILES is read from it. ξ: configuration not given here. X1 = N=C1NCC(C(O)C(N[*:1])C(=O)[*:2])N1C1OC(CO)C(O)C(O)C1O; ξEnduracididine(βξ-OH,4'ξ) = N=C1NCC(C(O)C(N)C(=O)O)N1; ξPhe(βξ-Me) = CC(c1ccccc1)C(N)C(=O)O
What was measured:
[1] = Anatomic pathology (heart and kidney histopathology) in mice; type: in vivo, CD-1 mice; conditions: 20 mg/kg intravenously daily for 9 days, microscopic histopathology on day 10
Method: 20-day-old CD-1 mice were divided into a vehicle control group (5 mice) and a treatment group (5 mice). Samples of glycopeptide antibiotics were administered at 20 mg/kg intravenously daily for 9 days.
Samples of tissues from necropsied mice were formalin-fixed, paraffin-embedded, sectioned, stained with hematoxylin and eosin, and examined microscopically. Histopathologic findings were recorded. These findings were subjectively graded on a scale corresponding to slight, mild, moderate, marked and severe as compared to untreated controls.

[2] = test system: Staphylococcus aureus-SMITH (GC 4543); assay: Acute lethal infection in mice (ED50); type: in vivo; conditions: female CD-1 mice, intraperitoneal challenge, intravenous dose 30 min. after infection, 7 day survival ratios
Method: The therapeutic effects of glycopeptide antibiotics of Formula I are determined against acute lethal infections with S. aureus (strain Smith), a penicillin resistant strain of S. pneumoniae (strain GC 1894), and a vancomycin resistant strain of E. fecalis (strain GC 6189 and GC 2246). Female mice, CD-1 (Charles River Laboratories), 20 +1-2 gm, are challenged by intraperitoneal injection of sufficient bacteria (suspended in Trypticase Soy Broth or hog gastric mucin) to kill non-treated controls within 24-48 hr. Antibacterial agents, contained in 0.2 mL of saline or 5% dextrose solution, are administered intravenously 30 min. after infection. Five mice are treated at each dose level. The 7 day survival ratios from 3 separate tests are pooled for calculation of median effective dose (ED50).

Staphylococcus sp. = assay: In vitro antibacterial evaluation: minimum inhibitory concentration (MIC), broth dilution method; type: cell-based; conditions: broth dilution, 18 hours at 35° C.; for MIC Staphylococcus aureus-SMITH (GC 4543): strain SMITH GC 4543
Outline: (§1)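 Susceptibility determined by NCCLS-recommended broth dilution (M7-A2), Muller-Hinton II […]. Concentration span 64-0.06 μg/mL, inoculum 5×10^5 CFU/mL. Isolates include strains resistant to methicillin, penicillin and/or vancomycin.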

Streptococcus sp. = assay: as above; type: cell-based; conditions: broth dilution, 18 hours at 35° C.
Outline: as §1

Enterococcus sp. = assay: as above; type: cell-based
Outline: as §1

Escherichia coli [3] = assay: as above; type: cell-based; conditions: broth dilution, 18 hours at 35° C.
Escherichia coli [4] = assay: as above; type: cell-based; conditions: strain GC 4560
Outline: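 NCCLS M7-A2 broth dilution; Muller-Hinton II […]; 5×10^5 CFU/mL; 64-0.06 μg/mL. MIC = lowest concentration with no growth.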

[5] = Streptococcus agalactiae (GC 4564)
[6] = Streptococcus pneumoniae (GC 1894)
[7] = Streptococcus pyogenes (GC 4563)
[8] = Enterococcus faecalis (GC 4553), broth dilution, 18 hours at 35° C.
[9] = Enterococcus faecium (GC 4557), broth dilution, 18 hours at 35° C.
[10] = broth dilution, 18 hours at 35° C.

N=C1NCC(C(O)C2NC(=O)[C@H](C(O)C3CNC(=N)N3)NC(=O)C(Cc3ccc(O)cc3)NC(=O)[C@H](Cc3ccccc3)NC(=O)CNC(=O)[C@H](CO)NC2=O)N1 (stereo in doubt) [Example 280a, Cyclo[glycylphenylalanyltyrosyl-3-(2-iminoimidazolidin-4-yl)seryl-3-(2-iminoimidazolidin-4-yl)serylseryl]]
Anatomical Pathology (Day 10), Heart [1]: 0 | Anatomical Pathology (Day 10), Kidney [1]: ++

CC(c1ccccc1)C1NC(=O)CNC(=O)C(CO)NC(=O)C(C(O)C2CNC(=N)N2C2OC(CO)C(O)C(O)C2O)NC(=O)C(C(O)C2CNC(=N)N2)NC(=O)C(Cc2ccc(O)cc2)NC1=O (stereo not drawn) [Example 55, Cyclo[glycyl-β-methylphenylalanyltyrosyl-3-(2-iminoimidazolidin-4-yl)seryl-3-(3-hexopyranosyl-2-iminoimidazolidin-4-yl)serylseryl]] (cyclo(G[ξPhe(βξ-Me)]Y[ξEnduracididine(βξ-OH,4'ξ)][X1]S); configuration not given here)
median effective dose (ED50), Staphylococcus aureus-SMITH (GC 4543) [2]: >8

CC(c1ccccc1)C1NC(=O)CNC(=O)C(CO)NC(=O)C(C(O)C2CNC(=N)N2C2OC(CO)C(O)C(O)C2O)NC(=O)C(C(O)C2CNC(=N)N2)NC(=O)C(Cc2ccc3oc(-c4ccc(Br)cc4)nc3c2)NC1=O (stereo not drawn) [Example 27, Cyclo[3-[2-(4-bromaphenyl)-1,3-benzoxazol-5-yl]alanyl-3-(2-iminoimidazolidin-4-yl)seryl-3-(3-hexopyranosyl-2-iminoimidazolidin-4-yl)serylserylglycyl-β-methylphenylalanyl]]
MIC Staphylococcus aureus-SMITH (GC 4543) (Staphylococcus sp.): 8 µg/mL (≈ 6.95 µM) | MIC Streptococcus agalactiae (GC 4564) (Streptococcus sp.; [5]): 32 µg/mL (≈ 27.8 µM) | MIC Streptococcus pneumoniae (ATCC 6301) (Streptococcus sp.; Streptococcus pneumoniae (ATCC 6301)): 16 µg/mL (≈ 13.9 µM) | MIC Streptococcus pneumoniae (GC 1894) (Streptococcus sp.; [6]): 32 µg/mL (≈ 27.8 µM) | MIC Streptococcus pneumoniae (GC 4565) (Streptococcus sp.; Streptococcus pneumoniae (GC 4565)): 16 µg/mL (≈ 13.9 µM) | MIC Streptococcus pyogenes (GC 4563) (Streptococcus sp.; [7]): 8 µg/mL (≈ 6.95 µM) | MIC Streptococcus agalactiae (GC 4564) (Streptococcus sp.): 32 µg/mL (≈ 27.8 µM) | MIC Streptococcus pneumoniae (ATCC 6301) (Streptococcus sp.): 16 µg/mL (≈ 13.9 µM) | MIC Streptococcus pneumoniae (GC 1894) (Streptococcus sp.): 32 µg/mL (≈ 27.8 µM) | MIC Streptococcus pneumoniae (GC 4565) (Streptococcus sp.): 16 µg/mL (≈ 13.9 µM) | MIC Streptococcus pyogenes (GC 4563) (Streptococcus sp.): 8 µg/mL (≈ 6.95 µM) | MIC Enterococcus avium (GC 4558) (Enterococcus sp.; Enterococcus avium (GC 4558), broth dilution, 18 hours at 35° C.): 16 µg/mL (≈ 13.9 µM) | MIC Enterococcus faecalis (ATCC 29212) (Enterococcus sp.; Enterococcus faecalis (ATCC 29212), broth dilution, 18 hours at 35° C.): 32 µg/mL (≈ 27.8 µM) | MIC Enterococcus faecalis (GC 2242) (Enterococcus sp.; Enterococcus faecalis (GC 2242), broth dilution, 18 hours at 35° C.): 32 µg/mL (≈ 27.8 µM) | MIC Enterococcus faecalis (GC 2691) (Enterococcus sp.; Enterococcus faecalis (GC 2691), broth dilution, 18 hours at 35° C.): 32 µg/mL (≈ 27.8 µM) | MIC Enterococcus faecalis (GC 3059) (Enterococcus sp.; Enterococcus faecalis (GC 3059), broth dilution, 18 hours at 35° C.): 32 µg/mL (≈ 27.8 µM) | MIC Enterococcus faecalis (GC 4552) (Enterococcus sp.; Enterococcus faecalis (GC 4552), broth dilution, 18 hours at 35° C.): 64 µg/mL (≈ 55.6 µM) | MIC Enterococcus faecalis (GC 4553) (Enterococcus sp.; [8]): 16 µg/mL (≈ 13.9 µM) | MIC Enterococcus faecalis (GC 4554) (Enterococcus sp.; Enterococcus faecalis (GC 4554), broth dilution, 18 hours at 35° C.): 32 µg/mL (≈ 27.8 µM) | MIC Enterococcus faecalis (GC 6189) (Enterococcus sp.; Enterococcus faecalis (GC 6189), broth dilution, 18 hours at 35° C.): 32 µg/mL (≈ 27.8 µM) | MIC Enterococcus faecium (GC 2243) (Enterococcus sp.; Enterococcus faecium (GC 2243), broth dilution, 18 hours at 35° C.): 32 µg/mL (≈ 27.8 µM) | MIC Enterococcus faecium (GC 4556) (Enterococcus sp.; Enterococcus faecium (GC 4556), broth dilution, 18 hours at 35° C.): 64 µg/mL (≈ 55.6 µM) | MIC Enterococcus faecium (GC 4557) (Enterococcus sp.; [9]): 8 µg/mL (≈ 6.95 µM) | MIC Enterococcus avium (GC 4558) (Enterococcus sp.; [10]): 16 µg/mL (≈ 13.9 µM) | MIC Enterococcus faecalis (ATCC 29212) (Enterococcus sp.; [10]): 32 µg/mL (≈ 27.8 µM) | MIC Enterococcus faecalis (GC 2242) (Enterococcus sp.; [10]): 32 µg/mL (≈ 27.8 µM) | MIC Enterococcus faecalis (GC 2691) (Enterococcus sp.; [10]): 32 µg/mL (≈ 27.8 µM) | MIC Enterococcus faecalis (GC 3059) (Enterococcus sp.; [10]): 32 µg/mL (≈ 27.8 µM) | MIC Enterococcus faecalis (GC 4552) (Enterococcus sp.; [10]): 64 µg/mL (≈ 55.6 µM) | MIC Enterococcus faecalis (GC 4553) (Enterococcus sp.; [10]): 16 µg/mL (≈ 13.9 µM) | MIC Enterococcus faecalis (GC 4554) (Enterococcus sp.; [10]): 32 µg/mL (≈ 27.8 µM) | MIC Enterococcus faecalis (GC 6189) (Enterococcus sp.; [10]): 32 µg/mL (≈ 27.8 µM) | MIC Enterococcus faecium (GC 2243) (Enterococcus sp.; [10]): 32 µg/mL (≈ 27.8 µM) | MIC Enterococcus faecium (GC 4556) (Enterococcus sp.; [10]): 64 µg/mL (≈ 55.6 µM) | MIC Enterococcus faecium (GC 4557) (Enterococcus sp.; [10]): 8 µg/mL (≈ 6.95 µM) | MIC Escherichia coli (ATCC 25922) (Escherichia coli [3]): 32 µg/mL (≈ 27.8 µM) | MIC Escherichia coli (GC 4559) (Escherichia coli [3]): 32 µg/mL (≈ 27.8 µM) | MIC Escherichia coli (GC 4560) (Escherichia coli [3]): 8 µg/mL (≈ 6.95 µM)

CC(c1ccccc1)C1NC(=O)CNC(=O)C(CO)NC(=O)C(C(O)C2CNC(=NCc3ccccc3)N2C2OC(CO)C(O)C(O)C2O)NC(=O)C(C(O)C2CNC(=N)N2)NC(=O)C(Cc2ccc(OC3OC(CO)C(OC4OC5COC6(OC5C(O)C4O)C4CC5CC(C4)CC6C5)C(O)C3O)cc2)NC1=O (stereo not drawn) [Example 76, Cyclo[glycyl-β-methylphenylalanyl-O-[4-O-[4,6-O-(2-adamantylidene)hexopyranosyl]hexopyranosyl]tyrosyl-3-(2-iminoimidazolidin-4-yl)seryl-3-[2-(benzylimino)-3-hexopyranosylimidazolidin-4-yl]serylseryl]]
MIC Escherichia coli (GC 4560) (Escherichia coli [4]): 2 to 4 µg/mL | MIC Coagulase Negative Staphylococcus (GC 4547) (Staphylococcus sp.): 2 to 4 µg/mL | MIC Coagulase Negative Staphylococcus (GC 4548) (Staphylococcus sp.): 2 to 4 µg/mL | MIC Coagulase Negative Staphylococcus (GC 4549) (Staphylococcus sp.): 2 to 4 µg/mL | MIC Coagulase Negative Staphylococcus (GC 4551) (Staphylococcus sp.): 2 to 8 µg/mL | MIC Coagulase Negative Staphylococcus (GC 6257) (Staphylococcus sp.): 0.5 to 2 µg/mL | MIC Staphylococcus aureus (ATCC 29213) (Staphylococcus sp.): 2 to 8 µg/mL | MIC Staphylococcus aureus (GC 1131) (Staphylococcus sp.): 4 to 8 µg/mL | MIC Staphylococcus aureus (GC 3051) (Staphylococcus sp.): 2 to 8 µg/mL | MIC Staphylococcus aureus (GC 3053) (Staphylococcus sp.): 2 to 8 µg/mL | MIC Staphylococcus aureus (GC 4541) (Staphylococcus sp.): 2 to 4 µg/mL | MIC Staphylococcus aureus (GC 4542) (Staphylococcus sp.): 2 to 8 µg/mL | MIC Staphylococcus aureus (GC 4544) (Staphylococcus sp.): 4 to 8 µg/mL | MIC Staphylococcus aureus (GC 4545) (Staphylococcus sp.): 2 to 8 µg/mL | MIC Staphylococcus aureus SMITH (GC 4543) (Staphylococcus sp.): 1 to 4 µg/mL | MIC Staphylococcus haemolyticus (GC 4546) (Staphylococcus sp.): 2 to 4 µg/mL | MIC Staphylococcus aureus-SMITH (GC 4543) (Staphylococcus sp.): 1 to 4 µg/mL | MIC Enterococcus faecium (GC 2243) (Enterococcus sp.; strain GC 2243): 2 to 8 µg/mL | MIC Enterococcus faecalis (GC 4553) (Enterococcus sp.; strain GC 4553): 4 to 8 µg/mL | MIC Enterococcus faecium (GC 4557) (Enterococcus sp.; strain GC 4557): 1 to 2 µg/mL | MIC Enterococcus avium (GC 4558) (Enterococcus sp.; strain GC 4558): 2 to 8 µg/mL | Anatomical Pathology (Day 10), Heart [1]: 0 | Anatomical Pathology (Day 10), Kidney [1]: ++

CCCCCCC(=O)Nc1cc(CC2NC(=O)C(C(C)c3ccccc3)NC(=O)CNC(=O)C(CO)NC(=O)C(C(O)C3CNC(=N)N3C3OC(CO)C(O)C(O)C3O)NC(=O)C(C(O)C3CNC(=N)N3)NC2=O)ccc1O (stereo not drawn) [Example 16, Cyclo[glycyl-β-methylphenylalanyl-3-(heptanamido)tyrosyl-3-(2-iminoimidazolidin-4-yl)seryl-3-(3-hexopyranosyl-2-iminoimidazolidin-4-yl)serylseryl]]
MIC Staphylococcus aureus-SMITH (GC 4543) (Staphylococcus sp.): 64 µg/mL (≈ 58.3 µM) | MIC Streptococcus agalactiae (GC 4564) (Streptococcus sp.; [5]): 64 µg/mL (≈ 58.3 µM) | MIC Streptococcus pneumoniae (GC 1894) (Streptococcus sp.; [6]): 64 µg/mL (≈ 58.3 µM) | MIC Streptococcus pyogenes (GC 4563) (Streptococcus sp.; [7]): 16 µg/mL (≈ 14.6 µM) | MIC Streptococcus agalactiae (GC 4564) (Streptococcus sp.): 64 µg/mL (≈ 58.3 µM) | MIC Streptococcus pneumoniae (GC 1894) (Streptococcus sp.): 64 µg/mL (≈ 58.3 µM) | MIC Streptococcus pyogenes (GC 4563) (Streptococcus sp.): 16 µg/mL (≈ 14.6 µM) | MIC Enterococcus faecalis (GC 4553) (Enterococcus sp.; [8]): 64 µg/mL (≈ 58.3 µM) | MIC Enterococcus faecium (GC 4557) (Enterococcus sp.; [9]): 16 µg/mL (≈ 14.6 µM) | MIC Enterococcus faecalis (GC 4553) (Enterococcus sp.; [10]): 64 µg/mL (≈ 58.3 µM) | MIC Enterococcus faecium (GC 4557) (Enterococcus sp.; [10]): 16 µg/mL (≈ 14.6 µM) | MIC Escherichia coli (ATCC 25922) (Escherichia coli [3]): 32 µg/mL (≈ 29.1 µM) | MIC Escherichia coli (GC 4559) (Escherichia coli [3]): 32 µg/mL (≈ 29.1 µM) | MIC Escherichia coli (GC 4560) (Escherichia coli [3]): 8 µg/mL (≈ 7.28 µM)
